Source: patent publication US20150072856A1, “ADJUVANTS BASED ON OPTIONALLY ALKOXYLATED REACTION PRODUCTS OF GLYCEROL CARBONATE AND ALKYLAMINES” (BASF SE, priority 2012, published 2015)

How the values were obtained:
Assay type in all cases: in vivo
Settings in all cases: 300 g/ha adjuvant, 375 l/ha tank mix, score vs untreated plants
[1] = system: soybean (cultivar Delta P.); experiment: Greenhouse herbicidal activity of glyphosate tank mix with adjuvant on soybean
Procedure: (§1) An aqueous formulation (SL type) was prepared by dissolving 52.3 wt % potassium glyphosate in water. As adjuvant the ethoxylated (10 equivalents) carbamate from Example 1 was added and dissolved in the resulting SL formulation. This SL formulation was diluted with water to prepare a tank mix, which contained 0.8 g/l of the adjuvant, 0.75 g/l of the potassium glyphosate (or as alternative tank mix 0.37 g/l). This tankmix may be applied at 375 l/ha (corresponding to 300 g/ha adjuvant and 280 g/ha glyphosate (or 140 g/ha as alternative).
(§2) For the greenhouse tests, various crops (winter wheat (cultivar Cubus), maize (cultivar Amadeo), soybean (cultivar Delta P.), rapeseed) was sown or potted in loamy sandy soil to a depth of 1-2 cm. When the plants had reached a growth height of 10 to 25 cm (i.e., around 10 to 21 days after sowing), the spray mixtures were applied to the plants in a spraying cabin.
(§3) The tank mix prepared in Example 7 was applied at a application rate of 375 l/ha (140 or 280 g of glyphosate/ha and 300 g of adjuvant/ha). The temperatures in the experimental period, which lasted for 3 to 4 weeks, were between 18-35° C. […]
(§4) The herbicidal activity was evaluated by awarding scores to the treated plants in comparison to the untreated control plants (Table 1 and 2). […]

rapeseed = experiment: Greenhouse herbicidal activity of glyphosate tank mix with adjuvant on rapeseed
Procedure: as §1, §2, §3, §4

maize (cultivar Amadeo) = experiment: Greenhouse herbicidal activity of glyphosate tank mix with adjuvant on maize
Procedure: as §1, §2, §3, §4

[2] = system: winter wheat (cultivar Cubus); experiment: Greenhouse herbicidal activity of glyphosate tank mix with adjuvant on wheat
Procedure: as §1, §2, §3, §4

With `O=C(O)CNCP(=O)([O-])O.[K+]` [—, potassium glyphosate] the “Activity [%] after 21 days DAT, Soybean” value ([1]; 140 g/ha glyphosate) was 0%, the “Activity [%] after 21 days DAT, Soybean” value ([1]; 280 g/ha glyphosate) was 0% and the “Activity [%] after 21 days DAT, Rapeseed” value (rapeseed; 140 g/ha glyphosate) was 0%. The “Activity [%] after 21 days DAT, Rapeseed” value (rapeseed; 280 g/ha glyphosate) was 0%, the “Activity [%] after 21 days DAT, Maize” value (maize (cultivar Amadeo); 140 g/ha glyphosate) was 13% and the “Activity [%] after 21 days DAT, Maize” value (maize (cultivar Amadeo); 280 g/ha glyphosate) was 63%. For the same compound, the “Activity [%] after 21 days DAT, Wheat” value ([2]; 140 g/ha glyphosate) was 8% and the “Activity [%] after 21 days DAT, Wheat” value ([2]; 280 g/ha glyphosate) was 31%.
